In publication PMC3548977 (Cancer cell, 2013):

Experiments:
SMO^WT = SMO^WT (Mus musculus, UniProt P56726); assay: 8×-GLI-luciferase reporter in SHHN stimulated Smo−/− MEFs expressing SMO^WT; type: cell-based
[1] = test system: Ptch^+/−; p53^−/− MB tumorspheres expressing endogenous SMO^WT; assay: MB tumorsphere proliferation; type: cell-based; details: Mus musculus, 96 h, read-out: IC50 anti-proliferative activity
Gli1 mRNA [2] = assay: Gli1 mRNA transcription in MB tumorspheres; type: cell-based; details: Mus musculus, 24 h, read-out: IC50 for Gli1 mRNA transcription
[3] = test system: Ptch^+/−; p53^−/− mouse MB allograft (SMO^WT); type: in vivo; details: day 9 of treatment; ATO 7.5 mg/kg IP qd, itraconazole 75 mg/kg PO bid
Gli1 mRNA [4] = assay: Gli1 mRNA expression in treated SMO^WT MB allografts; type: in vivo, mouse; details: treated 3 days, harvested 4 h after last dose
[5] = test system: NVP-LDE225 resistant SMO mutants; type: cell-based, mouse; details: itraconazole 1.5 μM, mutant of Figure 7D
P-glycoprotein (PGP) = details: ref Wang et al., 2002; cited from earlier work
murine SMO^E522K = murine SMO^E522K (Mus musculus, UniProt P56726, E522K); assay: 8×-GLI-luciferase reporter in SHHN stimulated Smo−/− MEFs expressing SMO^E522K; details: GDC-0449 0.5 μM, itraconazole 1.5 μM
Sequence of murine SMO^E522K (P56726 33-793 E522K): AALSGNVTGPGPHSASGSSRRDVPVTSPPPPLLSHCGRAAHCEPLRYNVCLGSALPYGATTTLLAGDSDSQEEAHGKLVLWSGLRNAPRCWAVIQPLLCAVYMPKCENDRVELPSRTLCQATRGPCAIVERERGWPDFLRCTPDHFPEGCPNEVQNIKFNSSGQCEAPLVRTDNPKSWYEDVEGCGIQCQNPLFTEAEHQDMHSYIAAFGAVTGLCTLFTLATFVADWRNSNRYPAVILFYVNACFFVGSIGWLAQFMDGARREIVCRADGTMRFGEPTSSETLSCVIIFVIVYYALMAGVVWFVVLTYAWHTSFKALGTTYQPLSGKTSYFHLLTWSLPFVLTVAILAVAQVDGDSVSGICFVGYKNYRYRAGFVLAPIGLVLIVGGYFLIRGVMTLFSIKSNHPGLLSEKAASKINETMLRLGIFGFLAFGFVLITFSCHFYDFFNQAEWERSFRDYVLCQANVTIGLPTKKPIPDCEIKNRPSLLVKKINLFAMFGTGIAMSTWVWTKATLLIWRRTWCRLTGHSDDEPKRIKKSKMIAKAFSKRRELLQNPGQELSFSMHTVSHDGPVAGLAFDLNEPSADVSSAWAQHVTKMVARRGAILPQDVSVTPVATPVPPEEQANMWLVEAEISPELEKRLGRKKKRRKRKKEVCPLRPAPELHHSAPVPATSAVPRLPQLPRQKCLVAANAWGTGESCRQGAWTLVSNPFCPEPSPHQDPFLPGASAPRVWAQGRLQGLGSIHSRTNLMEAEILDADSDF

Sequence of SMO^WT (P56726 33-793): as the sequence (P56726 33-793 E522K) above, with K490E counted along it

## CCC(C)n1ncn(-c2ccc(N3CCN(c4ccc(OCC5COC(Cn6cncn6)(c6ccc(Cl)cc6Cl)O5)cc4)CC3)cc2)c1=O (stereo not drawn) [itraconazole]
SMO^WT
  IC50: ~600 nM
SMO^WT; SHHN stimulated Smo−/− MEFs expressing SMO^WT
  Inhibition of relative Hh pathway activity (8×-GLI-luciferase reporter): full antagonist
[1]
  IC50: 55 nM
Gli1 mRNA [2]
  IC50: ~100 nM
[3]
  Tumor growth inhibition compared to vehicle-treated tumors: 96%
Gli1 mRNA [4]
  Inhibition of tumor Gli1 mRNA expression compared to vehicle-treated tumors: 55%
[5]
  Inhibition of mutant activity: ~ 60%
P-glycoprotein (PGP)
  Inhibition of PGP: potent inhibitor
Murine SMO^E522K
  Inhibition of SMO^E522K activity: almost completely inhibited
